From BindingDB's records for doi:10.1016/s0014-2999(02)01314-6 (Takeda Chemical Industries, 2002)

Target: Melanin-concentrating hormone receptor 1 (Rattus norvegicus, UniProt P97639)
Sequence (P97639 whole entry): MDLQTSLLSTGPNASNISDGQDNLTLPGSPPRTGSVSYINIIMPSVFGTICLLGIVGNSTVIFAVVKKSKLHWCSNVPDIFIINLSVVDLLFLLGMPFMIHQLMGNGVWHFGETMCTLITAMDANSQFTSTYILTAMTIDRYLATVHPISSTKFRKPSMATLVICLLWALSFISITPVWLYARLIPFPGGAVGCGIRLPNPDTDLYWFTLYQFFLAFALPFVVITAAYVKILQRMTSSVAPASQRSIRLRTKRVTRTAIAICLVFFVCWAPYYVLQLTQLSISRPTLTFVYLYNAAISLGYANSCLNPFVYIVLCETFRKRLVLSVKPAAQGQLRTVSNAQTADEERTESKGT

- Ki: 8.6 nM
Compound: CN(C)CC1CCc2cc(NC(=O)c3ccc(-c4ccc(F)cc4)cc3)ccc2C1 (stereo unspecified) [4''-Fluoro-biphenyl-4-carboxylic acid (6-dimethylaminomethyl-5,6,7,8-tetrahydro-naphthalen-2-yl)-amide]
